Experimental data taken from PubChem BioAssay AID248 (DTP/NCI, 2004).
Inconclusive results and toxic doses are left out. Cut-off read from the data, not from the text of the source: active = T/C of 150% or more; inactive = T/C below 125%.

System: L1210 leukemia ip in BDF1 mice, survival T/C
Assay: NCI In Vivo Anticancer Drug Screen. Data for tumor model L1210 Leukemia (intraperitoneal) in B6D2F1 (BDF1) mice
Settings: endpoint: mean survival time, higher = longer survival
Summary of the method: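 Transplantable tumor model; survival measured in treated vs vehicle control mice. Value = treated/control.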

Measured: T/C

O=C(O)/C=C/c1cnc[nH]1
inactive: dose: 100.0 mg/kg/injection, schedule: Q04DX002 (ip), vehicle: saline 93 % of control | dose: 200.0 mg/kg/injection, schedule: Q04DX002 (ip), vehicle: saline 104 % of control | dose: 400.0 mg/kg/injection, schedule: Q04DX002 (ip), vehicle: saline 108 % of control

C1CCC(C2CCCC(C3CCCCC3)C2)CC1 (centres undefined)
inactive: dose: 100.0 mg/kg/injection, schedule: Q01DX001 (ip), vehicle: carboxymethylcellulose (CMC) 94 % of control | dose: 200.0 mg/kg/injection, schedule: Q01DX001 (ip), vehicle: carboxymethylcellulose (CMC) 96 % of control | dose: 400.0 mg/kg/injection, schedule: Q01DX001 (ip), vehicle: carboxymethylcellulose (CMC) 94 % of control

CC(C)(C)NC(=O)C(Br)c1ccccc1 (centres undefined)
inactive: dose: 100.0 mg/kg/injection, schedule: Q04DX002 (ip), vehicle: saline with Tween-80 94 % of control | dose: 200.0 mg/kg/injection, schedule: Q04DX002 (ip), vehicle: saline with Tween-80 105 % of control | dose: 400.0 mg/kg/injection, schedule: Q04DX002 (ip), vehicle: saline with Tween-80 94 % of control
